Experimental data as given in the SangsterLogP compilation.

Assay: not given
Conditions: pH 2.0

Row | logD | Compound
1 | 4.09 | CC(C)N(Cc1nnc(-c2ccc(Cl)cc2)o1)C(=O)[C@@H]1COc2ccccc2O1

Same assay, conditions: pH 5.0

Row | logD | Compound
2 | 4.55 | CCCN(CCC)S(=O)(=O)c1ccc(C(=O)N2CC[C@@H]3c4ccccc4C(=O)N3C2)cc1
3 | 4.93 | C#CCOc1ccc(C2C3=C(CC(C)(C)CC3=O)OC3=C2C(=O)CC(C)(C)C3)cc1OCC
4 | 2.79 | CC(C)(C)C(=O)Nc1ccc(NC(=O)C(C)(C)C)cc1
5 | 3.08 | COc1ccccc1/C=N/n1c(C)cc(C)c(C#N)c1=O
6 | 1.43 | CCCC(=O)NC[C@@H](C)NC(=O)CCC
7 | 3.62 | CCCCN1C(=O)c2ccc(C(=O)OCC(=O)N[C@H](C)C(C)C)cc2C1=O
8 | 2.46 | CC1(C)[C@H](C(=O)N2CCOCC2)CC[C@]1(C)C(=O)N1CCOCC1
9 | 4.93 | CC[C@H](C(=O)N1CCCN(C(=O)[C@@H](CC)c2ccccc2)CC1)c1ccccc1
10 | 5.68 | COc1cc(/C=N\n2cnc3sc4c(c3c2=O)CCCC4)ccc1OCc1ccccc1
11 | 4.41 | O=C(NCc1ccccc1)/C(=C/c1ccc(Cl)cc1)NC(=O)c1ccccc1
12 | 5.36 | CCOCCOC(=O)c1ccc(NC(=O)COc2ccc(C)cc2Br)cc1
13 | 3.25 | C[C@@]12CC[C@H]3C[C@]1(C#N)N(C(=O)c1cccc([N+](=O)[O-])c1)C[C@]32C
14 | 4.74 | CC(=O)C12c3ccccc3C(c3ccccc31)[C@H]1C(=O)N(c3ccc(C)c([N+](=O)[O-])c3)C(=O)[C@@H]12
15 | 3.31 | CCc1ccccc1NC(=O)[C@]12CC[C@](C)(C(=O)O1)C2(C)C
16 | 4.07 | CC1(C)OC[C@H](COc2c(F)c(N3CCOCC3)nc(F)c2Cl)O1
17 | 4.44 | Cc1ccc([C@@H](O)P(=O)(OCC(C)C)OCC(C)C)cc1
18 | 4.46 | COc1cc(C#N)ccc1OC(=O)/C=C/c1cccc(F)c1

Same assay, conditions: pH 6.5

Row | logD | Compound
19 | 4.79 | C[C@H]1CCc2nc(NC(=O)c3ccc(F)c(F)c3)sc2C1
20 | 6.26 | Cc1ccc(CN2C(=O)/C(=C/[C@@H]3CC=CCC3)SC2=S)cc1
21 | 5.05 | C[C@@H]1CCCN(c2nc3c(c(=O)n(C)c(=O)n3C)n2CCSc2nc3ccccc3s2)C1

Same assay, conditions: pH 7.3

Row | logD | Compound
22 | 3.25 | CCOP(=O)(Cc1ccc(CP(=O)(OCC)OCC)o1)OCC
23 | 6 | O=C(Nc1ccccc1)[C@H]1CC(=O)N(Cc2ccccc2)/C(=N/c2ccc(F)cc2)S1

Same assay, conditions: pH 8.0

Row | logD | Compound
24 | 3.9 | OC[C@H]1CCCN(c2ncnc3scc(-c4ccccc4)c23)C1

Same assay, conditions: pH 10.0

Row | logD | Compound
25 | 4.19 | C[C@H]1CN(C(=O)c2cc(-c3ccc4c(c3)OCO4)nc3ccccc23)C[C@H](C)O1
26 | 5.43 | CC(C)OC(=O)C1=C(CSc2nc3c(cc2C#N)CCCCC3)OC(N)=C(C#N)[C@@H]1c1ccncc1
27 | 4.55 | CC[C@@H]1CCCCN1C(=O)[C@H]1CC(c2cc(Cl)c(OC)cc2OC)=NO1

Same assay, conditions: pH 10.5

Row | logD | Compound
28 | 4.99 | CC1(C)CC(=O)C2=C(C1)OC(N)=C(C#N)[C@H]2c1c2ccccc2cc2ccccc12
29 | 4.97 | CC(=O)C1=C(C)NC(SCC(=O)Nc2ccccc2)=C(C#N)[C@H]1c1ccccc1Cl
30 | 4.52 | COc1cccc(C2=NN=C3OC(N)=C(C#N)[C@H](c4cc(OC)c(OC)cc4Br)[C@@H]32)c1
31 | 6.04 | C=CCn1c(SCC(=O)N2C[C@@]3(C)C[C@@H]2CC(C)(C)C3)nc2sc(CC)cc2c1=O
32 | 3.18 | Nc1nc(O/N=C/c2ccc([N+](=O)[O-])cc2)nc(N2CCOCC2)n1

Assay: method code SF, from DOI: 10.1016/j.ejps.2012.10.019, PMID: 23131797
Conditions: pH 5.0

Row | logD | Compound
33 | 5.96 | COc1ccc(OC)c(NC(=O)c2ccc(NC3=C(Cl)C(=O)N(C4CCCCC4)C3=O)cc2)c1
34 | 4.89 | CCc1c(C#N)c(SCC(=O)N2CCc3cc(OC)c(OC)cc3C2)nc2c1C(=O)CC(C)(C)C2
35 | 5.16 | O=C(COc1ccc(C(F)(F)F)cc1[N+](=O)[O-])Nc1ccccc1Br
36 | 4.62 | C=CCn1c(C)c(C=C2C(=O)OC3(CCCCC3)OC2=O)c2ccccc21
37 | 3.87 | NC(=O)c1cc(NC(=O)c2cc(C(F)(F)F)cc(C(F)(F)F)c2)cc(C(N)=O)c1
38 | 3.19 | O=C(CS(=O)(=O)Cc1ccccc1)Nc1ccc2c(c1)OCCO2

Same assay, conditions: pH 6.5

Row | logD | Compound
39 | 6.17 | COc1ccccc1N1C(=O)c2ccc(C(=O)Nc3ccc(-c4nnc(-c5ccccc5)o4)cc3)cc2C1=O

Same assay, conditions: pH 10.0

Row | logD | Compound
40 | 2.67 | Nc1ccccc1Nc1ccccc1

Same assay, conditions: pH 10.5

Row | logD | Compound
41 | 2.93 | COCCCNC(=O)c1cc(Br)c(C)c(C)c1C
